Reference: the NIST ThermoML archive (doi:10.1016/j.tca.2018.11.018)

Test: xn = mol fraction of the nth substance listed
Conditions: 100 kPa, Liquid; for viscosity: Falling or rolling sphere viscometry; for mass density: Vibrating tube method

CCCC[N+]1(C)CCCCC1.[Br-] [N-butyl-N-methylpiperidinium bromide] + O
Conditions	mass density [kg/m3]	viscosity [mPa·s]
298.15 K, x1 = 0.03	1057.7	1.991
298.15 K, x1 = 0.06	1097.6	3.692
298.15 K, x1 = 0.089	1126.3	6.598
298.15 K, x1 = 0.124	1150.5	12.67
298.15 K, x1 = 0.159	1167.6	21.36
298.15 K, x1 = 0.195	1180.6	35.21
298.15 K, x1 = 0.244	1193.3	69.27
303.15 K, x1 = 0.03	1054.4	1.735
303.15 K, x1 = 0.06	1094.6	3.121
303.15 K, x1 = 0.089	1122.9	5.435
303.15 K, x1 = 0.124	1146.9	10.39
303.15 K, x1 = 0.159	1164	16.98
303.15 K, x1 = 0.195	1176.9	27.19
303.15 K, x1 = 0.244	1189.7	51.06
303.15 K, x1 = 0.271	1195.4	72.65
308.15 K, x1 = 0.03	1051.9	1.529
308.15 K, x1 = 0.06	1091.5	2.676
308.15 K, x1 = 0.089	1119.4	4.553
308.15 K, x1 = 0.124	1143.2	8.531
308.15 K, x1 = 0.159	1160.3	13.62
308.15 K, x1 = 0.195	1173.3	21.32
308.15 K, x1 = 0.244	1186.2	38.65
308.15 K, x1 = 0.271	1191.8	53.78
313.15 K, x1 = 0.03	1049.3	1.359
313.15 K, x1 = 0.06	1088.3	2.321
313.15 K, x1 = 0.089	1116	3.88
313.15 K, x1 = 0.124	1139.6	7.053
313.15 K, x1 = 0.159	1156.7	11.02
313.15 K, x1 = 0.195	1169.7	16.99
313.15 K, x1 = 0.244	1182.6	29.62
313.15 K, x1 = 0.271	1188.3	40.63
318.15 K, x1 = 0.03	1045.6	1.215
318.15 K, x1 = 0.06	1085.1	2.033
318.15 K, x1 = 0.089	1112.4	3.326
318.15 K, x1 = 0.124	1135.9	5.797
318.15 K, x1 = 0.159	1153	9.05
318.15 K, x1 = 0.195	1166	13.74
318.15 K, x1 = 0.244	1179	23.16
318.15 K, x1 = 0.271	1184.7	31.55
323.15 K, x1 = 0.03	1042.7	1.097
323.15 K, x1 = 0.06	–	1.798
323.15 K, x1 = 0.089	–	2.89
323.15 K, x1 = 0.124	–	4.929
323.15 K, x1 = 0.159	–	7.56
323.15 K, x1 = 0.195	–	11.33
323.15 K, x1 = 0.244	–	18.71
323.15 K, x1 = 0.271	–	24.85
